Test results: paper PMC8319832, “Fine-Tuning of Alkaline Residues on the Hydrophilic Face Provides a Non-toxic Cationic α-Helical Antimicrobial Peptide Against Antibiotic-Resistant ESKAPE Pathogens” (Frontiers in Microbiology, 2021)
Values after ≈ are worked out from the molar mass of the structure shown. Where a SMILES comes first, the peptide text is derived from it.

What was measured:
[1] = tested on: human red blood cells (hRBCs); assay: Hemolytic activity determination; format: cell-based; details: hRBCs in 0.9% sodium chloride, 37°C, 1 h, OD540, 1% Triton X-100 = 100%, three independent experiments
Experimental: Fresh human red blood cells (hRBCs) were collected in a sterile borosilicate glass tube covered with sodium citrate as the anticoagulating agent. […] Two-fold dilutions of the peptides were prepared in 0.9% sodium chloride to 100 μl and mixed with equal volumn of hRBC suspension to final peptide concentrations ranging from 12.5 to 200 μg ml^–1. After co-incubation at 37°C for 1 h, the samples were centrifuged (2,000 × g, 4°C, 20 min), and the supernatant (100 μl) was taken for optical density (OD540) measurements (Asample). The hRBCs assayed with 0.9% sodium chloride (Ablank) or 1% Triton X-100 (Apositive) were applied as 0% and 100% hemolysis, respectively. Three independent experiments were performed and the percent hemolysis was calculated according to the following equation ([Yin et al., 2012]; [Li et al., 2016]):
Hemolysis(%)=100*(Asample-Ablank)/(Apositive-Ablank)

[2] = tested on: E. coli ATCC25922; assay: MIC, broth dilution; format: cell-based, Escherichia coli; details: CLSI broth dilution, MHB, 6.25 × 10^5 cfu per ml, 37°C, 20 h, OD630, at least three repeats
[3] = tested on: S. aureus ATCC29213; assay: MIC, broth dilution; format: cell-based, Staphylococcus aureus; details: CLSI broth dilution, MHB, 6.25 × 10^5 cfu per ml, 37°C, 20 h, OD630, at least three repeats
Experimental: All experiments were repeated at least three times.
To study the influence of physiological ions on the antimicrobial activities of the peptides, The MICs of the peptides were also determined against the standard bacterial strains cultured in MHB containing various salts at their physiological concentrations (150 mM NaCl, 4.5 mM KCl, 1 mM MgCl2, 2 mM CaCl2, 6 μM NH4HCO3, and 4 μM FeCl3) ([Ma et al., 2016]).

SMILES | percent hRBC hemolysis ([1]; peptide 25 μg ml^–1) | MIC [2] | MIC [3] | percent hRBC hemolysis ([1]; peptide 100 μg ml^–1)
CC[C@H](C)[C@H](NC(=O)[C@H](CCCNC(=N)N)NC(=O)CNC(=O)[C@@H](NC(=O)[C@@H](N)Cc1ccccc1)[C@@H](C)CC)C(=O)N[C@@H](C)C(=O)N[C@@H](CCCNC(=N)N)C(=O)N[C@@H](CC(C)C)C(=O)N[C@@H](CC(C)C)C(=O)N[C@@H](CO)C(=O)N[C@@H](CCCCN)C(=O)N[C@H](C(=O)N[C@@H](Cc1ccccc1)C(N)=O)[C@@H](C)CC [Kn2(A4R)] (H-FIGRIARLLSKIF-NH2) | 100% | 10 µg/mL (≈ 6.52 µM) | 5 µg/mL (≈ 3.26 µM) | 
CC[C@H](C)[C@H](NC(=O)[C@H](CCCNC(=N)N)NC(=O)CNC(=O)[C@@H](NC(=O)[C@@H](N)Cc1ccccc1)[C@@H](C)CC)C(=O)N[C@@H](C)C(=O)N[C@@H](CCCNC(=N)N)C(=O)N[C@@H](CC(C)C)C(=O)N[C@@H](CC(C)C)C(=O)N[C@@H](CCCNC(=N)N)C(=O)N[C@@H](CCCCN)C(=O)N[C@H](C(=O)N[C@@H](Cc1ccccc1)C(N)=O)[C@@H](C)CC [Kn2(A4R_S10R)] (H-FIGRIARLLRKIF-NH2) | 18.0% | 20 µg/mL (≈ 12.5 µM) | 10 µg/mL (≈ 6.24 µM) | 
CC[C@H](C)[C@H](NC(=O)[C@H](C)NC(=O)[C@H](CCCCN)NC(=O)[C@@H](NC(=O)[C@@H](N)Cc1ccccc1)[C@@H](C)CC)C(=O)N[C@@H](C)C(=O)N[C@@H](CCCNC(=N)N)C(=O)N[C@@H](CC(C)C)C(=O)N[C@@H](CC(C)C)C(=O)N[C@@H](CO)C(=O)N[C@@H](CCCCN)C(=O)N[C@H](C(=O)N[C@@H](Cc1ccccc1)C(N)=O)[C@@H](C)CC [Kn2(G3K)] (H-FIKAIARLLSKIF-NH2) | 69.0% | 40 µg/mL (≈ 26.3 µM) | 5 µg/mL (≈ 3.29 µM) | 
CC[C@H](C)[C@H](NC(=O)[C@H](CCCNC(=N)N)NC(=O)[C@H](CCCCN)NC(=O)[C@@H](NC(=O)[C@@H](N)Cc1ccccc1)[C@@H](C)CC)C(=O)N[C@@H](C)C(=O)N[C@@H](CCCNC(=N)N)C(=O)N[C@@H](CC(C)C)C(=O)N[C@@H](CC(C)C)C(=O)N[C@@H](CO)C(=O)N[C@@H](CCCCN)C(=O)N[C@H](C(=O)N[C@@H](Cc1ccccc1)C(N)=O)[C@@H](C)CC [Kn2(G3K_A4R)] (H-FIKRIARLLSKIF-NH2) | 8.3% | 10 µg/mL (≈ 6.23 µM) | 5 µg/mL (≈ 3.12 µM) | 
CC[C@H](C)[C@H](NC(=O)[C@H](C)NC(=O)[C@H](CCCCN)NC(=O)[C@@H](NC(=O)[C@@H](N)Cc1ccccc1)[C@@H](C)CC)C(=O)N[C@@H](C)C(=O)N[C@@H](CCCNC(=N)N)C(=O)N[C@@H](CC(C)C)C(=O)N[C@@H](CC(C)C)C(=O)N[C@@H](CCCNC(=N)N)C(=O)N[C@@H](CCCCN)C(=O)N[C@H](C(=O)N[C@@H](Cc1ccccc1)C(N)=O)[C@@H](C)CC [Kn2(G3K_S10R)] (H-FIKAIARLLRKIF-NH2) | 77.5% | 20 µg/mL (≈ 12.6 µM) | 10 µg/mL (≈ 6.3 µM) | 
CC[C@H](C)[C@H](NC(=O)[C@H](C)NC(=O)CNC(=O)[C@@H](NC(=O)[C@@H](N)Cc1ccccc1)[C@@H](C)CC)C(=O)N[C@@H](C)C(=O)N[C@@H](CCCNC(=N)N)C(=O)N[C@@H](CC(C)C)C(=O)N[C@@H](CC(C)C)C(=O)N[C@@H](CCCNC(=N)N)C(=O)N[C@@H](CCCCN)C(=O)N[C@H](C(=O)N[C@@H](Cc1ccccc1)C(N)=O)[C@@H](C)CC [Kn2(S10R)] (H-FIGAIARLLRKIF-NH2) | 50.9% | 20 µg/mL (≈ 13.2 µM) | 10 µg/mL (≈ 6.59 µM) | 
CC[C@H](C)[C@H](NC(=O)[C@H](CCCNC(=N)N)NC(=O)[C@H](CCCNC(=N)N)NC(=O)[C@@H](NC(=O)[C@@H](N)Cc1ccccc1)[C@@H](C)CC)C(=O)N[C@@H](C)C(=O)N[C@@H](CCCNC(=N)N)C(=O)N[C@@H](CC(C)C)C(=O)N[C@@H](CC(C)C)C(=O)N[C@@H](CCCNC(=N)N)C(=O)N[C@@H](CCCCN)C(=O)N[C@H](C(=O)N[C@@H](Cc1ccccc1)C(N)=O)[C@@H](C)CC [Kn2-7(K3R)] (H-FIRRIARLLRKIF-NH2) |  | 20 µg/mL (≈ 11.8 µM) | 5 µg/mL (≈ 2.94 µM) | 89.3%
CC[C@H](C)[C@H](NC(=O)[C@H](CCCNC(=N)N)NC(=O)[C@H](CCCCN)NC(=O)[C@@H](NC(=O)[C@@H](N)Cc1ccccc1)[C@@H](C)CC)C(=O)N[C@@H](C)C(=O)N[C@@H](CCCNC(=N)N)C(=O)N[C@@H](CC(C)C)C(=O)N[C@@H](CC(C)C)C(=O)N[C@@H](CCCNC(=N)N)C(=O)N[C@@H](CCCNC(=N)N)C(=O)N[C@H](C(=O)N[C@@H](Cc1ccccc1)C(N)=O)[C@@H](C)CC [Kn2-7(K11R)] (H-FIKRIARLLRRIF-NH2) |  | 10 µg/mL (≈ 5.88 µM) | 5 µg/mL (≈ 2.94 µM) | 
CC[C@H](C)[C@H](NC(=O)[C@H](CCCCN)NC(=O)[C@H](CCCCN)NC(=O)[C@@H](NC(=O)[C@@H](N)Cc1ccccc1)[C@@H](C)CC)C(=O)N[C@@H](C)C(=O)N[C@@H](CCCNC(=N)N)C(=O)N[C@@H](CC(C)C)C(=O)N[C@@H](CC(C)C)C(=O)N[C@@H](CCCNC(=N)N)C(=O)N[C@@H](CCCCN)C(=O)N[C@H](C(=O)N[C@@H](Cc1ccccc1)C(N)=O)[C@@H](C)CC [Kn2-7(R4K)] (H-FIKKIARLLRKIF-NH2) |  | 5 µg/mL (≈ 3.04 µM) | 5 µg/mL (≈ 3.04 µM) | 
CC[C@H](C)[C@H](NC(=O)[C@H](CCCCN)NC(=O)[C@H](CCCCN)NC(=O)[C@@H](NC(=O)[C@@H](N)Cc1ccccc1)[C@@H](C)CC)C(=O)N[C@@H](C)C(=O)N[C@@H](CCCCN)C(=O)N[C@@H](CC(C)C)C(=O)N[C@@H](CC(C)C)C(=O)N[C@@H](CCCNC(=N)N)C(=O)N[C@@H](CCCCN)C(=O)N[C@H](C(=O)N[C@@H](Cc1ccccc1)C(N)=O)[C@@H](C)CC [Kn2-7(R4K_R7K)] (H-FIKKIAKLLRKIF-NH2) |  | 10 µg/mL (≈ 6.18 µM) | 5 µg/mL (≈ 3.09 µM) | 
CC[C@H](C)[C@H](NC(=O)[C@H](CCCCN)NC(=O)[C@H](CCCCN)NC(=O)[C@@H](NC(=O)[C@@H](N)Cc1ccccc1)[C@@H](C)CC)C(=O)N[C@@H](C)C(=O)N[C@@H](CCCNC(=N)N)C(=O)N[C@@H](CC(C)C)C(=O)N[C@@H](CC(C)C)C(=O)N[C@@H](CCCCN)C(=O)N[C@@H](CCCCN)C(=O)N[C@H](C(=O)N[C@@H](Cc1ccccc1)C(N)=O)[C@@H](C)CC [Kn2-7(R4K_R10K)] (H-FIKKIARLLKKIF-NH2) |  | 5 µg/mL (≈ 3.09 µM) | 2.5 µg/mL (≈ 1.55 µM) | 
CC[C@H](C)[C@H](NC(=O)[C@H](CCCNC(=N)N)NC(=O)[C@H](CCCCN)NC(=O)[C@@H](NC(=O)[C@@H](N)Cc1ccccc1)[C@@H](C)CC)C(=O)N[C@@H](C)C(=O)N[C@@H](CCCCN)C(=O)N[C@@H](CC(C)C)C(=O)N[C@@H](CC(C)C)C(=O)N[C@@H](CCCNC(=N)N)C(=O)N[C@@H](CCCCN)C(=O)N[C@H](C(=O)N[C@@H](Cc1ccccc1)C(N)=O)[C@@H](C)CC [Kn2-7(R7K)] (H-FIKRIAKLLRKIF-NH2) |  | 20 µg/mL (≈ 12.2 µM) | 5 µg/mL (≈ 3.04 µM) | 
CC[C@H](C)[C@H](NC(=O)[C@H](CCCNC(=N)N)NC(=O)[C@H](CCCCN)NC(=O)[C@@H](NC(=O)[C@@H](N)Cc1ccccc1)[C@@H](C)CC)C(=O)N[C@@H](C)C(=O)N[C@@H](CCCCN)C(=O)N[C@@H](CC(C)C)C(=O)N[C@@H](CC(C)C)C(=O)N[C@@H](CCCCN)C(=O)N[C@@H](CCCCN)C(=O)N[C@H](C(=O)N[C@@H](Cc1ccccc1)C(N)=O)[C@@H](C)CC [Kn2-7(R7K_R10K)] (H-FIKRIAKLLKKIF-NH2) |  | 20 µg/mL (≈ 12.4 µM) | 5 µg/mL (≈ 3.09 µM) | 
CC[C@H](C)[C@H](NC(=O)[C@H](CCCNC(=N)N)NC(=O)[C@H](CCCCN)NC(=O)[C@@H](NC(=O)[C@@H](N)Cc1ccccc1)[C@@H](C)CC)C(=O)N[C@@H](C)C(=O)N[C@@H](CCCNC(=N)N)C(=O)N[C@@H](CC(C)C)C(=O)N[C@@H](CC(C)C)C(=O)N[C@@H](CCCCN)C(=O)N[C@@H](CCCCN)C(=O)N[C@H](C(=O)N[C@@H](Cc1ccccc1)C(N)=O)[C@@H](C)CC [Kn2-7(R10K)] (H-FIKRIARLLKKIF-NH2) |  | 5 µg/mL (≈ 3.04 µM) | 5 µg/mL (≈ 3.04 µM) | 
